Assay results from US20130184462A1, “METHOD FOR PREDICTING AND MODELING ANTI-PSYCHOTIC ACTIVITY USING VIRTUAL SCREENING MODEL” (COUNCIL OF SCIENTIFIC & INDUSTRIAL RESEARCH, priority 2010, published 2013).

System: amphetamine induced hyperactivity mice model
Experiment: Amphetamine induced hyperactivity mouse model
Settings: in-vitro and in-vivo evaluation, FIGS. 3 and 4
Method: The animals were housed in plastic polypropylene cages under standard animal house conditions with a 12 hours light/dark cycle and temperature of 25±2° C.
The mice randomly grouped in batches of seven animals per group. The basal motor activity (distance traveled) of each mouse was recorded individually using automated activity monitor (TSE, Germany). After basal activity recording, a group of seven animals were challenged with amphetamine [5.5 mg/kg, intra peritoneal (i.p) dissolved in normal saline]. After 30 min. amphetamine injection, motor activity was recorded for individual animal for 5 min.
The difference in motor activity as indicated by distance traveled in animals with amphetamine alone treated and animals with samples plus amphetamine challenge was recorded as inhibition in hyper activity caused by amphetamine and data presented as percent inhibition in amphetamine induced hyperactivity.

| SMILES | antipsychotic activity in-vitro and in-vivo |
| --- | --- |
| COC(=O)C1C(OC(=O)c2ccc([N+](=O)[O-])cc2)CCC2CN3CCc4c([nH]c5ccccc45)C3CC21 (stereo not drawn) [K001E, 17-O-(4″)-nitrobenzoyl-α-yohimbine] | potential antipsychotic activity |
| COC(=O)C1C(OC(=O)C=Cc2ccccc2)CCC2CN3CCc4c([nH]c5ccccc45)C3CC21 (stereo not drawn) [K001F, 17-O-cinnamoyl α-yohimbine] | potential antipsychotic activity |
| COC(=O)C1C(OC(=O)c2cccc([N+](=O)[O-])c2)CCC2CN3CCc4c([nH]c5ccccc45)C3CC21 (stereo not drawn) [K001C, 17-O-(3″)-nitrobenzoyl α-yohimbine] | potential antipsychotic activity |
| COC(=O)C1C(OC(C)=O)CCC2CN3CCc4c([nH]c5ccccc45)C3CC21 (stereo not drawn) [K001A, 17-O-acetyl α-yohimbine] | potential antipsychotic activity |
